Assay results published in patent publication US5807869A, “Quinoline derivatives, their production and use” (Takeda Chemical Industries, Ltd., priority 1995, dated 1998).
Structures can show the parent of a compound that is named as a salt.

Biological target: T1, human GnRH receptor (Homo sapiens, UniProt P30968)
T1 construct: expressed in transfected cells; host or cells: CHO (Chinese Hamster Ovary) cells
T1 sequence (P30968 1-328): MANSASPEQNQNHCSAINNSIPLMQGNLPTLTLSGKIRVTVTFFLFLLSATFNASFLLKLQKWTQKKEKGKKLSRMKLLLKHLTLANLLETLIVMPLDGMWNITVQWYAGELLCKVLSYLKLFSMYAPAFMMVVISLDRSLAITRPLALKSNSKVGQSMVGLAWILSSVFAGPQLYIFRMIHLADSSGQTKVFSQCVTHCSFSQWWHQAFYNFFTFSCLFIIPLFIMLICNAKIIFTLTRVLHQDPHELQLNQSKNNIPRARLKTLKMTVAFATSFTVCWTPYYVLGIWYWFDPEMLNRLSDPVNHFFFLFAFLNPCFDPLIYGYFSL
Assay: 125I-leuprorelin binding inhibition, membrane fraction of CHO cells expressing human GnRH receptors
Details: CHO cell membrane fraction, 25° C., 60 minutes, Hill plot, read-out: 125I-leuprorelin binding inhibitory rate IC50 value

IC50: 50 nM
SMILES: CCOC(=O)c1cn(Cc2c(F)cccc2F)c2cc(-c3ccc(NC(=O)CC)cc3)c(CN(C)Cc3ccccc3)cc2c1=O [Example 3, 6-(N-benzyl-N-methylaminomethyl)-1,4-dihydro-1-(2,6-difluorobenzyl)-7-(4-propionylaminophenyl)-4-oxoquinoline-3-carboxylic acid ethyl ester hydrochloride]
